In ChEMBL document CHEMBL4602737, “Structure-Guided Identification of DNMT3B Inhibitors” (ACS Med Chem Lett, 2020) one finds IC50, CC50 and LD50 data, which are given here for 11 compounds.

The term IC50 denotes the concentration that gives 50% inhibition. A word on the CC50: it is the concentration giving 50% cytotoxicity. Broadly, the LD50 is the dose at which mortality reaches 50%.

Series [1] deals with T1, DNA (cytosine-5)-methyltransferase 3B (Homo sapiens, UniProt Q9UBC3). The experiment in a line: Inhibition of human recombinant DNMT3B expressed in baculovirus infected insect cells using CpG site containing internally quenched hairpin oligonucleotide DNA substrate and SAM incubated for 30 mins by kinetic fluorogenic assay.
The target of series [2] is DNA (cytosine-5)-methyltransferase 1 (Homo sapiens, UniProt P26358). Nature of the series: Inhibition of human recombinant DNMT1 expressed in baculovirus infected insect cells using CpG site containing internally quenched hairpin oligonucleotide DNA substrate and SAM incubated for 30 mins by kinetic fluorogenic assay.
Sequence of DNA (cytosine-5)-methyltransferase 1 (P26358 whole entry): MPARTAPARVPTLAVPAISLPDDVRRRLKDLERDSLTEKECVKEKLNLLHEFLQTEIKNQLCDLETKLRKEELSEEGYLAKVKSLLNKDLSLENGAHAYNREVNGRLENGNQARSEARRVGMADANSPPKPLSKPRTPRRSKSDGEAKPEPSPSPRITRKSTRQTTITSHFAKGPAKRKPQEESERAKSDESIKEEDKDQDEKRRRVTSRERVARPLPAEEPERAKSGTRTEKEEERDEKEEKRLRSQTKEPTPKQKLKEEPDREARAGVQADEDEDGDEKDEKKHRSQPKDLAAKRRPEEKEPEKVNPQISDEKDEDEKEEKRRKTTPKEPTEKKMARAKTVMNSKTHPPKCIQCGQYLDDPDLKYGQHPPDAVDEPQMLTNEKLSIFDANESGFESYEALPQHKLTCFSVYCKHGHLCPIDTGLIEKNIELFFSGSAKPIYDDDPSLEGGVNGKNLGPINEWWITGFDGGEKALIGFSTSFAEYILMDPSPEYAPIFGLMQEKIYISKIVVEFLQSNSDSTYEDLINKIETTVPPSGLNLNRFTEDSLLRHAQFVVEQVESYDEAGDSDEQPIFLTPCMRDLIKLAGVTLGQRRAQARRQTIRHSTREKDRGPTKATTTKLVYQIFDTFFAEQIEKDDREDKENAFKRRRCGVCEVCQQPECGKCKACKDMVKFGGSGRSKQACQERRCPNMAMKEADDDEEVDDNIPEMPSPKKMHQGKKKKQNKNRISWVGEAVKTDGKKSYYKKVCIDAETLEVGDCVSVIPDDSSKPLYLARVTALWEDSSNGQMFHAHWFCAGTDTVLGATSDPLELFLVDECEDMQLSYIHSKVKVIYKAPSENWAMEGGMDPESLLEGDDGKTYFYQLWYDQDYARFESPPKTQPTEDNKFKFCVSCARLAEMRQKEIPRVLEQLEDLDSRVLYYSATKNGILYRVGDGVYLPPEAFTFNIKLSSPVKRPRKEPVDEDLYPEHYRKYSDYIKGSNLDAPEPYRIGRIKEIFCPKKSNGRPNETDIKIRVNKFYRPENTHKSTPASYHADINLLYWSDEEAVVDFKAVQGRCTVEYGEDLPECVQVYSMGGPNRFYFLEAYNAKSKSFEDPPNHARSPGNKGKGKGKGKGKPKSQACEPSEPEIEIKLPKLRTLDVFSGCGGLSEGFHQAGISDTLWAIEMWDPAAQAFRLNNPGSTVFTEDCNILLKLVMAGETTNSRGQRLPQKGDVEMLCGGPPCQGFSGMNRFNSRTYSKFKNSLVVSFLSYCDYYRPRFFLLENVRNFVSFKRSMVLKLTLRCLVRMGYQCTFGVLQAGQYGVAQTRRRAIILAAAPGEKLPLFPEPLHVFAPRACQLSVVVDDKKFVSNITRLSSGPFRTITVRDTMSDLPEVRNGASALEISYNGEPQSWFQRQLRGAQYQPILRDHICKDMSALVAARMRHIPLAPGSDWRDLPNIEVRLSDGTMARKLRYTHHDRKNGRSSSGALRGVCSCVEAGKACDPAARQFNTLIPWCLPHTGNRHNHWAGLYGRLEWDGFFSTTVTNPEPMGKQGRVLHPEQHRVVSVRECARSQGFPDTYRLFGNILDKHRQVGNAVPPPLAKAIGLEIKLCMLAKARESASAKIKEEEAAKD
A short description of series [3]: Cytotoxicity in African green monkey Vero cells assessed as reduction in cell viability. It counts as cell-based. The conditions noted are these: chlorocebus sabaeus.
In series [4] the target is T1, DNA (cytosine-5)-methyltransferase 3B. Nature of the series: Inhibition of human recombinant DNMT3B expressed in baculovirus infected insect cells by DRONE assay.
The nature of series [5]: Toxicity in mouse. The conditions noted are these: in vivo. It counts as organism-based.

In the case of `CN(Cc1ccc2cc[nH]c2c1)C(=O)CCc1cccc(-c2nc3ccccc3[nH]2)c1`, in series [1], the IC50 entry was “Not Active”.
Still for that read-out and setting: the same measure for `CN(Cc1ccc2cn[nH]c2c1)C(=O)CCc1cccc(-c2nc3ccccc3[nH]2)c1`: “Not Active”; for `CN(Cc1ccc2cn[nH]c2c1)C(=O)CCc1cccc(-c2cc3ccccc3[nH]2)c1`: “Not Active”; for `CN(Cc1ccc2[nH]ccc2c1)C(=O)CCc1cccc(-c2nc3ccccc3[nH]2)c1`: “Not Active”.
Same read-out and setting: the value for `O=C(CCc1cccc(-c2nc3ccccc3[nH]2)c1)NCc1ccc2[nH]ncc2c1` was “Not Active”.
With `O=C(CSc1ncnc2sccc12)N1CCN(Cc2cc(=O)n3ccsc3n2)CC1`, the IC50 in series [2] was 27200 nM.
The same measure, in the same setting: the same measure for `Cc1ccc2c(=O)c(-c3nc(-c4cccc(F)c4)no3)cn(CC(=O)Nc3ccc4c(c3)OCO4)c2n1`: 28500 nM.
In the case of `O=C(O)[C@H](Cc1c[nH]c2ccccc12)N1C(=O)c2ccccc2C1=O`, in series [1] (read-out: IC50), the IC50 worked out at 900 nM.
With `C[C@@H]1O[C@@H](CC(=O)O)CC2=C1C(=O)c1c(O)cccc1C2=O` [NANAFROCIN], the half-maximal cytotoxic concentration (CC50) in series [3] came out at 700 nM. Further, the IC50 in series [4] came to 730 nM; in series [1] (read-out: IC50), 1500 nM. In addition, in series [5], the LD50 came to 28 mg/kg.
For the compound `CN(Cc1ccc2cc[nH]c2c1)C(=O)CCc1cccc(-c2cc3ccccc3[nH]2)c1`, the IC50 result in series [1] is recorded as “Not Active”.
Same read-out and setting: the same measure for `CN(Cc1ccc2[nH]ccc2c1)C(=O)CCc1cccc(-c2cc3ccccc3[nH]2)c1`: “Not Active”.
